Results from patent US12508276B2, “Use of ginsenoside M1 for treating Huntington's disease” (priority 2018, dated 2025).

What was measured:
mHtt aggregate = test: mHtt aggregates in striatal lysates, filter retardation assay; assay type: in vivo, mouse; settings: R6/2 mice, 30 mg/kg oral daily for 4 weeks from age of 7 weeks, FIG. 9
Description: Mice were treated daily with ginsenoside M1 (30 mg/kg of body weight, oral administration) or vehicle for 4 weeks from the age of 7 weeks. The amount of mHtt aggregates in striatal lysates was analyzed by a filter retardation assay. Brain tissues were suspended and homogenized in ice-cold THE buffer, mixed with 2% SDS. Samples were first passed through OE66 membrane filters ([…] pore size; Whatman Schleicher and Schuell, Middlesex, UK) in a slot-blot manifold (Bio-Rad, Irvine, CA, USA). Insoluble aggregates retained on the filters were detected using an anti-Htt antibody.

STHdh^Q109 cells [1] = test: MTT reduction assay, survival rate of mHtt expression cells; assay type: cell-based, mouse; settings: 24 h
Description: Conditionally immortalized wild-type […]7 striatal neuronal progenitor cells expressing endogenous normal htt (referred to as wild-type striatal cells), and homozygous mutant […] striatal neuronal progenitor cells from homozygous […] knock-in mice expressing mutant htt with 109 glutamines (referred to as mutant striatal […] and […] cells were generous gifts from Dr. Elena Cattaneo and […] (Department of pharmacological sciences and centre for stem cell research, University of Milano, Italy). These cells were maintained in an incubation chamber at 33° C. in Dulbecco's modified Eagle's medium (DMEM) supplemented with 10% fetal bovine serum (FBS). […]7 and […] cells were treated with 30 μM ginsenoside M1 or vehicle (DMSO) for 24 h. […]7 and […] cells death was quantified by the MTT reduction assay. […] At the end of experiments, cells were incubated in culture medium with 0.5 mg/ml MTT at 37° C. for 2 h. The culture medium was then replaced with DMSO to dissolve the MTT formazan precipitates, which was followed by the measurement of the absorbance at 570 nm using a microplate reader (OPTImax tunable plate reader, Molecular Device, Sunnyvale, CA, USA). The survival rate of the indicated cells was normalized to those survival rate of untreated (vehicle-treated) […]7 cells. As shown in the FIG. 1A, the survival rate of untreated (vehicle-treated) […] cells was lower than that of untreated (vehicle-treated) […]7 cells. […] To confirm the cyto-protective effect of ginsenoside […] cells were treated with 1, 10 and 30 μM ginsenoside M1 or vehicle (DMSO) for 24 h. […] The results are express as the means±SEM of triplicate samples.

R6/2 mice [2] = test: Motor coordination, rotarod apparatus assay in HD disease mice; assay type: in vivo, mouse; settings: 30 mg/kg oral daily for 4 weeks from age of 7 weeks, rotarod 12 rpm, 2 min, FIG. 7
Description: (§1) Mice were treated daily with ginsenoside M1 (30 mg/kg of body weight, oral administration) or vehicle for 4 weeks from the age of 7 weeks. Motor coordination was assessed using a rotarod apparatus assay (UGO BASILE, Comerio, Italy) at a constant speed (12 rpm) over a period of 2 min. […] Results were expressed as means±SEM. Multiple groups were analyzed by one-way analysis of variance (ANOVA) followed by a post hoc Student-Newman-Keuls test. ^ap<0.05: between WT and R6/2-vehicle mice. ^bp<0.05: compared to R6/2-vehicle mice.

ATM = test: Phosphorylation level of ATM by Western blot; assay type: cell-based, mouse; settings: STHdh^Q109 cells, 24 h, vs vehicle-treated STHdh^Q109 cells, FIG. 4
Description: ATM is activated by DNA damage and plays important role in the phosphorylation of AMPK. To investigate whether ginsenoside M1 inhibited ATM activation, […]7 and […] cells were treated with 10 and 30 μM ginsenoside M1 or vehicle (DMSO) for 24 h. The phosphorylation level of ATM was measured by Western blot.

γH2AX = test: Expression level of γH2AX by Western blot; assay type: cell-based, mouse; settings: STHdh^Q109 cells, 24 h, vs vehicle-treated STHdh^Q109 cells, FIG. 5
Description: ATM is now known to regulate DNA repair through the activation of γH2AX. To investigate whether ginsenoside M1 inhibited the expression level of γH2AX, […]7 and […] cells were treated with 10 and 30 μM ginsenoside M1 or vehicle (DMSO) for 24 h. The expression level of γH2AX was measured by Western blot.

STHdh^Q109 cells [3] = test: Cellular ROS production (H2DCFDA fluorescence); assay type: cell-based, mouse; settings: 1 h, FIG. 2
Description: Oxidative stress is one of the important events triggers cell death in STHdh^Q109 cells. To investigate whether ginsenoside M1 inhibited cell death of STHdh^Q109 cells by reducing oxidative stress, STHdh^Q109 cells were treated with 1, 10 and 30 μM ginsenoside M1 or vehicle (DMSO) in the presence of 10 μM intracellular ROS indicator fluorescent probe 2,7-dichlorodihydrofluorescein diacetate (H2DCFDA; Molecular Probes, Inc., Eugene, Oregon, USA) for 1 h. Cellular ROS contents were measured by detecting the fluorescence intensity (Excitation/Emission: 488 nm/510 nm) using a fluorescence plate reader (Fluoroskan Ascent; Thermo Electron Corporation, Woburn, MA, USA). […] The results are express as the means±SEM of triplicate samples. Multiple groups will analyze with one-way analysis of variance (ANOVA), follow by a post-hoc Student-Newman-Keuls test. p value of <0.05 will considered significant. ^ap<0.05: compared to untreated (vehicle-treated) STHdh^Q109 cells.

R6/2 mice [4] = test: Lifespan of HD disease mice; assay type: in vivo, mouse; settings: 30 mg/kg oral daily for 4 weeks from age of 7 weeks, FIG. 8
Description: as §1, with “weeks, and the lifespan of mice” for “weeks. Motor coordination”, “determined.” for “assessed using a rotarod apparatus assay (UGO BASILE, Comerio, Italy) at a constant speed (12 rpm) over a period of 2 min.”

p53 = test: Phosphorylation level of p53 by Western blot; assay type: cell-based, mouse; settings: STHdh^Q109 cells, 24 h, vs vehicle-treated STHdh^Q109 cells, FIG. 6
Description: p53 plays a role in the regulation of the cell cycle and apoptosis. p53 becomes activated in response to DNA damage and oxidative stress. To investigate whether ginsenoside M1 inhibited the phosphorylation level of […]7 and […] cells were treated with 10 and 30 μM ginsenoside M1 or vehicle (DMSO) for 24 h. The phosphorylation level of p53 was measured by Western blot.

AMPK = test: Phosphorylation level of AMPK by Western blotting; assay type: cell-based, mouse; settings: STHdh^Q109 cells, 24 h, vs vehicle-treated STHdh^Q109 cells, FIG. 3
Description: Activation of AMPK promotes the pathogenesis of HD [37]. To investigate whether ginsenoside M1 inhibited AMPK activation, […]7 and […] cells were treated with 10 and 30 μM ginsenoside M1 or vehicle (DMSO) for 24 h. The phosphorylation level of AMPK was measured by Western blotting.

## CC(C)=CCC[C@](C)(O[C@@H]1O[C@H](CO)[C@@H](O)[C@H](O)[C@H]1O)[C@H]1CC[C@]2(C)[C@@H]1[C@H](O)C[C@@H]1[C@@]3(C)CC[C@H](O)C(C)(C)[C@@H]3CC[C@]12C [ginsenoside M1, 20-O-β-D-glucopyranosyl-20(S)-protopanaxadiol]
mHtt aggregate
  mHtt aggregate formation in the striatum: reduced
STHdh^Q109 cells [1]; 10 μM, FIG. 1B
  survival rate: significantly increased
STHdh^Q109 cells [1]; 30 μM, FIG. 1A
  survival rate: significantly increased
STHdh^Q109 cells [1]; 30 μM, FIG. 1B
  survival rate: significantly increased
R6/2 mice [2]
  motor coordination: increased significantly
ATM; 10 μM
  phosphorylation level of ATM: significantly reduced
ATM; 30 μM
  phosphorylation level of ATM: significantly reduced
γH2AX; 10 μM
  expression level of γH2AX: significantly reduced
γH2AX; 30 μM
  expression level of γH2AX: significantly reduced
STHdh^Q109 cells [3]; 10 μM
  ROS production: significantly reduced
STHdh^Q109 cells [3]; 30 μM
  ROS production: significantly reduced
R6/2 mice [4]
  lifespan: significantly prolonged
p53; 10 μM
  phosphorylation level of p53: significantly reduced
p53; 30 μM
  phosphorylation level of p53: significantly reduced
AMPK; 10 μM
  phosphorylation level of AMPK: significantly reduced
AMPK; 30 μM
  phosphorylation level of AMPK: significantly reduced
